Results on 21 compounds are retold here after patent US11135209B2, “Compositions and methods for inhibiting protein kinases” (UNIVERSITY OF HOUSTON SYSTEM, priority 2017, dated 2021).

Test [1] deals with Recombinant RIPK2 protein (Homo sapiens, UniProt O43353). As to the kind of experiment: Receptor Interacting Protein Kinase 2 (RIPK2) enzyme assay (ADP-Glo). It counts as biochemical. As to the method: Receptor Interacting Protein Kinase 2 (RIPK2) Enzyme Assay
Recombinant RIPK2 protein (20 ng per reaction) is diluted in the reaction buffer consisting of 40 mM Tris (pH 7.5); 20 mM MgCl2; 0.1 mg/ml BSA; 50 μM DTT. Diluted protein is added to low volume white 384 well plates (2 μL/well). Inhibitors are diluted in reaction buffer (final 25% DMSO), 1 μL is added to each well and incubated 5 min at room temperature. Reactions are initiated by the addition of 2 μL of 100 μM ATP and 1 mg/ml RS repeat peptide (SignalChem) in the reaction buffer. Plates are sealed with plastic coverslips and incubated at room temperature for 2 h. Reactions are stopped by the addition of 5 μL of ADP-Glo reagent (Promega) and ADP generation reaction is performed for 40 min at room temperature. Luminescence signal is generated by the addition of 10 μL of Kinase detection reagent (Promega) for 30 min at room temperature Luminescence signals are determined using appropriate luminescence plate-reader (typical integration time 0.3-1 sec). To calculate percent inhibition, average background signal is subtracted from test well and maximal signal wells. Inhibition, %=(1−(test signal/maximal signal))*100. The percent inhibition at a specified concentration is determined or IC50 values are calculated based on a dose range of inhibitor concentrations using non-linear regression in GraphPad Prism software.

The target in a further test is T1, human ALK2 (Homo sapiens, UniProt Q04771).
T1 sequence (Q04771 21-509): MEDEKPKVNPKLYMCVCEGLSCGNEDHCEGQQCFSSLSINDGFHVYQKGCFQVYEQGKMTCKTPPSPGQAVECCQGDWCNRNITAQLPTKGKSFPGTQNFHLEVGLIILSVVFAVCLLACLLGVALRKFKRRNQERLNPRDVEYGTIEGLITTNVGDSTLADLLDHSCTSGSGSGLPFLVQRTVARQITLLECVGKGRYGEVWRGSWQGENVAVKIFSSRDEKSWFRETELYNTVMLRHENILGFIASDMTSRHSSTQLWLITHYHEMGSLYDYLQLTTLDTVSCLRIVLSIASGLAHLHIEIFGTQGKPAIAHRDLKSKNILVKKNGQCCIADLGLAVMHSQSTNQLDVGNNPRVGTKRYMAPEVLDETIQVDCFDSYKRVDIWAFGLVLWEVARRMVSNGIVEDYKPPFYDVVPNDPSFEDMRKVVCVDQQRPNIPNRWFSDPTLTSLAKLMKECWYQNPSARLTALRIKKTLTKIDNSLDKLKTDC
Kind of test: Activin-Like Kinase 2 (ALK2) enzyme assay. Format: biochemical. As to the method:
Activin-Like Kinase 2 (ALK2) Enzyme Assay
Enzyme inhibitory activity was evaluated in a standard kinase enzyme assay by incubating human ALK2 with the protein substrate casein (1 mg/mL) and γ-^33ATP (10 μM) in the presence of various concentrations of test compounds (10 nM-100 μM). After 30 min the amount of ^33P-casein was determined.

For test [2], the system named is NOD2 cellular signaling in HEK-Blue cells expressing human NOD2. As to the kind of experiment: NOD2 cell signaling assay (HEK-Blue, NFkB-SEAP reporter, L18-MDP stimulated). Conditions: read-out: IC50 (nM) HEKBlue RIPK2. It counts as cell-based. As for the experimental part: NOD2 Cell Signaling Assay.
HEK-Blue cells expressing human NOD2 and NFkB-SAEP reporter (Invivogen) are seeded into 96 well clear plates at 7.5×10^3 cells per well in 100 μL of DMEM media supplemented with 10% FBS and 1% antibiotic-antimycotic mix. Cells are allowed to attach for 48 h in 5% CO2 tissue culture incubator at 37° C. On the morning of the experiment, media in the wells is replaced with 100 pt of HEK-Blue detection media (Invivogen). Cells are treated with the inhibitors, diluted in DMSO (0.5 μL per well) for 15 min in 5% CO2 tissue culture incubator at 37° C. After that, cells are stimulated by the addition of 1 ng/well L18-MDP (Invivogen). Cells are incubated in 5% CO2 tissue culture incubator at 37° C. for 8 h and absorbance, corresponding to the SEAP in the media, is determined in Wallac3V plate reader (Perkin Elmer). Inhibition, %=(1−((sample signal-unstimulated and DMSO treated cells)/(L18-MDP stimulated and DMSO treated cells−unstimulated and DMSO treated cells)))*100. IC50 values are calculated based on a dose range of inhibitor concentrations using non-linear regression in GraphPad Prism software.

Bounds are passed on as bounds.

Sequence of Recombinant RIPK2 protein (O43353 whole entry, species assumed): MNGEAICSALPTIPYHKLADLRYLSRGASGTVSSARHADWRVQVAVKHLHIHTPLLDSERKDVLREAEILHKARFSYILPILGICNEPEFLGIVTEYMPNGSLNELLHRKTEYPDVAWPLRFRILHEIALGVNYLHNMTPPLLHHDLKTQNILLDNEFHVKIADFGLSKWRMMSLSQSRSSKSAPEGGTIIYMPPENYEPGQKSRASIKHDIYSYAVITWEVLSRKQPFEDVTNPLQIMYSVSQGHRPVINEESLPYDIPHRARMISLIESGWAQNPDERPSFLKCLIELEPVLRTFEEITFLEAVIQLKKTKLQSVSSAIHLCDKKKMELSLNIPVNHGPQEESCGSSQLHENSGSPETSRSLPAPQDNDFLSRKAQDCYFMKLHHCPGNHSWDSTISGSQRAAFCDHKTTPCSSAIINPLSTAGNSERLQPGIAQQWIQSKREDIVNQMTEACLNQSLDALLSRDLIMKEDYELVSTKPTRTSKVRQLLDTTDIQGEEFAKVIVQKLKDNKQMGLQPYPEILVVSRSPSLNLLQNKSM

On to `CCCS(=O)(=O)Nc1cc(-c2cc(-c3ccc(N4CCNCC4)cc3)cnc2N)cc(F)c1OC` [CSLP37, N-(5-(2-Amino-5-(4-(piperazin-1-yl)phenyl)pyridin-3-yl)-3-fluoro-2-methoxyphenyl)propane-1-sulfonamide], for which the half-inhibitory concentration (IC50) was greater than 10 nM in test [1], greater than 100 nM on human ALK2 and greater than 10 nM in test [2].
Regarding `CCCS(=O)(=O)Nc1cc(-c2cc(-c3ccc(N4CCNCC4)cc3)cnc2C)cc(F)c1OC` [CSLP53, N-(3-Fluoro-2-methoxy-5-(2-methyl-5-(4-(piperazin-1-yl)phenyl)pyridin-3-yl)phenyl)propane-1-sulfonamide], the results for the IC50 (in test [1]; on human ALK2; in test [2]) were greater than 1000 nM, greater than 100000 nM and greater than 1000 nM, respectively.
As to `CCCS(=O)(=O)Nc1cc(-c2cc(-c3ccccc3S(C)(=O)=O)cnc2N)ccc1OC` [CSLP33, N-(5-(2-Amino-5-(2-(methylsulfonyl)phenyl)pyridin-3-yl)-2-methoxyphenyl)propane-1-sulfonamide], the results for the half-inhibitory concentration (IC50) (in test [1]; on human ALK2; in test [2]) were greater than 1000 nM, greater than 100000 nM and greater than 1000 nM, respectively.
In the case of `COc1cc(-c2cc(-c3ccc(N4CCNCC4)cc3)cnc2N)cc(NS(=O)(=O)c2ccccc2)c1C` [CSLP51, N-(5-(2-Amino-5-(4-(piperazin-1-yl)phenyl)pyridin-3-yl)-3-methoxy-2-methylphenyl)benzenesulfonamide], the IC50 (in test [1]; against human ALK2; in test [2]) was greater than 1000 nM in each case.
On to `CCCS(=O)(=O)Nc1cc(-c2cc(-c3ccc(N4CCNCC4)cc3)cnc2N)ccc1O` [CSLP48, N-(5-(2-Amino-5-(4-(piperazin-1-yl)phenyl)pyridin-3-yl)-2-hydroxyphenyl)propane-1-sulfonamide], for which the half-maximal inhibitory concentration (IC50) in test [1] is greater than 10 nM; on human ALK2 it was greater than 100 nM; in test [2], greater than 1000 nM.
`CCCS(=O)(=O)Nc1cc(-c2cc(-c3ccc(N4CCNCC4)cc3)cnc2N)cc2c1OCCO2` [CSLP52, N-(7-(2-Amino-5-(4-(piperazin-1-yl)phenyl)pyridin-3-yl)-2,3-dihydrobenzo[b][1,4]dioxin-5-yl)propane-1-sulfonamide]: the IC50 in test [1] was greater than 100 nM; against human ALK2, greater than 100000 nM; in test [2] it was greater than 1000 nM.
As to `CCCS(=O)(=O)N1CCc2ccc(-c3cc(-c4ccc(N5CCNCC5)cc4)cnc3N)cc21` [CSLP46, 5-(4-(Piperazin-1-yl)phenyl)-3-(1-(propylsulfonyl)indolin-6-yl)pyridin-2-amine], the values for the IC50 (in test [1]; against human ALK2; in test [2]) were greater than 100 nM, greater than 100000 nM and greater than 1000 nM, respectively.
On to `CCCS(=O)(=O)Nc1cc(-c2cc(-c3ccc(N4CCNCC4)cc3)cnc2N)cc(F)c1C` [CSLP41, N-(5-(2-Amino-5-(4-(piperazin-1-yl)phenyl)pyridin-3-yl)-3-fluoro-2-methylphenyl)propane-1-sulfonamide], for which the IC50 was greater than 100 nM in test [1], greater than 100000 nM on human ALK2 and greater than 100 nM in test [2].
For `CCCS(=O)(=O)Nc1cc(-c2cc(-c3ccc(N4CCNCC4)cc3)cnc2N)cc(OC)c1OC` [CSLP43, N-(5-(2-Amino-5-(4-(piperazin-1-yl)phenyl)pyridin-3-yl)-2,3-dimethoxyphenyl)propane-1-sulfonamide], the IC50 in test [1] is greater than 10 nM; against human ALK2 it was greater than 10 nM; in test [2], greater than 1 nM.
On to `CCCS(=O)(=O)Nc1cc(-c2cc(-c3ccc(N4CCNCC4)cc3)cnc2N)cc(Cl)c1C` [CSLP40, N-(5-(2-Amino-5-(4-(piperazin-1-yl)phenyl)pyridin-3-yl)-3-chloro-2-methylphenyl)propane-1-sulfonamide], for which the IC50 in test [1] was greater than 100 nM; on human ALK2 it was greater than 100 nM; in test [2] it was greater than 1000 nM.
As for `CCCS(=O)(=O)Nc1cc(-c2cc(-c3cccc(N4CCNCC4)c3)cnc2N)cc(F)c1OC` [CSLP58, N-(5-(2-Amino-5-(3-(piperazin-1-yl)phenyl)pyridin-3-yl)-3-fluoro-2-methoxyphenyl)propane-1-sulfonamide], the values for the IC50 (in test [1]; against human ALK2; in test [2]) were greater than 10 nM, greater than 100 nM and greater than 10 nM, respectively.
For the compound `CCOc1cc(-c2cc(-c3ccc(N4CCNCC4)cc3)cnc2N)cc(NS(=O)(=O)Cc2ccccc2)c1C` [CSLP54, N-(5-(2-Amino-5-(4-(piperazin-1-yl)phenyl)pyridin-3-yl)-3-ethoxy-2-methylphenyl)-1-phenylmethanesulfonamide], the concentration for half-maximal inhibition (IC50) (in test [1]; against human ALK2; in test [2]) was greater than 1000 nM each time.
As for `CCCS(=O)(=O)Nc1cc(-c2cc(-c3cccc(S(C)(=O)=O)c3)cnc2N)ccc1OC` [CSLP30], the IC50 in test [1] was greater than 100 nM; against human ALK2 it was greater than 10000 nM; in test [2], greater than 1000 nM.
As to `COc1cc(NS(=O)(=O)Cc2ccccc2)cc(-c2cc(-c3ccc(N4CCNCC4)cc3)cnc2N)c1` [CSLP24, N-(3-(2-Amino-5-(4-(piperazin-1-yl)phenyl)pyridin-3-yl)-5-methoxyphenyl)-1-phenylmethanesulfonamide], the values for the IC50 (in test [1]; at human ALK2; in test [2]) were greater than 100 nM, greater than 1 nM and greater than 100 nM, respectively.
For the compound `CCCS(=O)(=O)Nc1cc(F)cc(-c2cc(-c3ccc(N4CCNCC4)cc3)cnc2N)c1` [CSLP38, N-(3-(2-Amino-5-(4-(piperazin-1-yl)phenyl)pyridin-3-yl)-5-fluorophenyl)propane-1-sulfonamide], the IC50 in test [1] was greater than 10 nM; against human ALK2 it was greater than 10 nM; in test [2], greater than 100 nM.
In the case of `CCS(=O)(=O)Nc1cc(OC)cc(-c2cc(-c3ccc(N4CCNCC4)cc3)cnc2Cl)c1` [CSLP14], the IC50 in test [1] was greater than 100 nM; on human ALK2 it was greater than 10 nM; in test [2] it was greater than 1000 nM. The inhibition at 0.5 µM in test [1] (Conc. 500 nM) came to 86%.
For `CCCS(=O)(=O)Nc1cc(-c2cc(-c3ccc(N4CCNCC4)cc3)cnc2N)cc(Cl)c1OC` [CSLP35], the 50% inhibitory concentration (IC50) in test [1] was greater than 10 nM; on human ALK2, greater than 100 nM; in test [2] it was greater than 10 nM.
On to `COc1cc(NS(=O)(=O)CC(C)C)cc(-c2cc(-c3ccc(N4CCNCC4)cc3)cnc2N)c1` [CSLP12, N-(3-(2-Amino-5-(4-(piperazin-1-yl)phenyl)pyridin-3-yl)-5-methoxyphenyl)-2-methylpropane-1-sulfonamide], for which the values for the IC50 (in test [1]; against human ALK2; in test [2]) were greater than 10 nM, greater than 1 nM and greater than 100 nM, respectively.
With `COc1cc(NS(C)(=O)=O)cc(-c2cc(-c3ccc(N4CCNCC4)cc3)cnc2C)c1` [CSLP2, N-(3-Methoxy-5-(2-methyl-5-(4-(piperazin-1-yl)phenyl)pyridin-3-yl)phenyl)methanesulfonamide], the IC50 in test [1] was greater than 100 nM; against human ALK2 it was greater than 10 nM; in test [2], greater than 1000 nM. In test [1] (Conc. 250 nM), the inhibition at 0.25 µM came out at 39%.
As for `COc1cc(-c2cc(-c3ccc(N4CCNCC4)cc3)cnc2N)cc(NS(C)(=O)=O)c1C` [CSLP21, N-(5-(2-Amino-5-(4-(piperazin-1-yl)phenyl)pyridin-3-yl)-3-methoxy-2-methylphenyl)methanesulfonamide], the values for the IC50 (in test [1]; against human ALK2; in test [2]) were greater than 1000 nM, greater than 100 nM and greater than 1000 nM, respectively.
Turning to `CCOc1cc(NS(=O)(=O)C(C)C)cc(-c2cc(-c3ccc(N4CCNCC4)cc3)cnc2N)c1` [CSLP22, N-(3-(2-Amino-5-(4-(piperazin-1-yl)phenyl)pyridin-3-yl)-5-ethoxyphenyl)propane-2-sulfonamide], the half-maximal inhibitory concentration (IC50) is greater than 10 nM in test [1], greater than 100 nM on human ALK2 and greater than 10 nM in test [2].
